Literature values, collected in patent publication US7829717B2, “(Arylamidoaryl)squaramide compounds” (OSI Pharmaceuticals, Inc., priority 2004, dated 2010).
Structures can show the parent of a compound that is named as a salt.

System: MO7e human leukemia cells

## Cc1ccc(NC(=O)c2ccc(CN3CCN(C)CC3)cc2)cc1Nc1nccc(-c2cccnc2)n1 [Gleevec, imatinib mesylate]
GM-CSF stimulated
  GM-CSF stimulated growth of MO7e human leukemia cells: not affected
Kit ligand-stimulated
  Kit ligand-stimulated growth of MO7e human leukemia cells: inhibited
